Measured values as given in patent US20080171370A1, “DETOXIFYING PRE-TREATED LIGNOCELLULOSE-CONTAINING MATERIALS” (Novozymes North America, Inc., priority 2006, published 2008).
“Also recorded” adds a separate entry of the source.

Tests used:
[1] = tested on: RED STAR Ethanol Red yeast; assay: Fermentation of detoxified fully unwashed pretreated corn stover (fuwPCS) filtrate, Example 1; assay type: cell-based; conditions: for average ethanol yield: 24 hours fermentation, 0.2 g/L yeast, 32° C., pH 5.0
Description: Yeast Preparation: Freeze-dried RED STAR™ Ethanol Red yeast re-hydrated in 10×YP media for 30 minutes at 32° C. It was dosed into the fermentations at a dose of 0.2 g/L.
Dilute acid steam exploded corn stover (PCS) was diluted with water and adjusted to pH 5.0 with NH4OH. The total solids (TS) level was 15 wt.-%. This sample was then saccharified for 63 hours at 50° C. with Cellutolytic Preparation A. Penicillin was added at a rate of 1 gl/L also added prior to saccharification was citrate buffer at a rate of 50 mL of 1 M citrate buffer per 100 ml of substrate. Following the saccharification step, the sample was filtered via a 0.2 micron Nalgene vacuum fitter system (Product # 8-000043-0803) to remove the solids and used for fermentation. The fuwPCS was then pipetted into separate sterile, 15 mL conical centrifuge tubes containing a small CO2 vent hole.
The pH was adjusted to about 2 using H2SO4; gallic acid was dosed at concentrations of 2 mM (GaA-L) and at 10 mM (GaA-H). The gallic acid was prepared by sonicating […] of garlic acid in 100 ml of de-ionized water. The broth was allowed to stand at 20° C. overnight and then readjusted to pH 5 using NaOH before adding yeast.
The dosing for amidase was carried out by treating with 5.6 Units/5 g substrate (AMD-L) and also 56 Units/5 g substrate (AMD-H). The amidase treated samples were brought to a pH of 7 with NaOH and allowed to sit in an oven at a temperature of 37° C. for 18 hours as a pre-treatment.
Fermentations were carried out in sterile 15 mL conical plastic centrifuge tubes at 32° C. for 48 hours at pH 5.0. A total of 5 grams of sample was fermented for each treatment. Treatments were run in triplicate.
Fermentation samples were collected after 24 hours for the 0.2 g/L yeast dose and analyzed for acetic acid and ethanol using an Agilent HPLC System with an analytical BIO-RAD Aminex HPX-87H column and a BIO-RAD Cation H refill guard column.

[2] = tested on: RED STAR Ethanol Red yeast; assay: Fermentation of enzyme-detoxified fuwPCS filtrate at 37° C., Example 2; assay type: cell-based; conditions: detoxified 19 hours
Description: Dilute acid steam exploded corn stover (PCS) was diluted with water and adjusted to pH 5.0 with NH4OH. The total solids (TS) level was 16%. This sample was then saccharified for 72 hours at 50° C. with Cellulolytic Preparation A. Penicillin and citrate buffer were also added prior to saccharification. Following the saccharification step, the sample was filtered to remove the solids and the filtrate was used for fermentation. The fuwPCS was then pipetted into separate sterile, 15 mL conical centrifuge tubes containing a small CO2 vent hole.
Freeze-dried RED STAR™ Ethanol Red yeast was re-hydrated in 10×YP media for 30 minutes at 32° C. it was dosed into the fermentations at a dose of 0.2 g/L.
Filtered, unwashed PCS was detoxified for 19 hours using the optimal conditions for each enzyme. For amidase, the pH of the fuwPCS was first adjusted up to 7.0 using NaOH, the amidase was added at the tested dosages, and the tubes were incubated at 37° C. The pH of the fuwPCS was then readjusted to 5.0 using H2SO4 prior to fermentation. For the carbonic anhydrase the pH was left at 5.0, the enzyme was added and the tubes were incubated at 37° C. All enzymes were diluted with de-ionized water prior to dosing. Dosing ranges for each enzyme were as follows in units/mL of the final solution for amidase and kilo units/mL for carbonic anhydrase.
A total of 3.5 grams of sample was fermented for each treatment and the initial pH for all fermentations was 5.0. Treatments were run in triplicate. The final TS level was 13.7 wt.-%. These fermentations were run at a higher temperature of 37° C.
Fermentation samples were collected after 12 and 24 hours and analyzed for ethanol using an Agilent HPLC System with an analytical BIO-RAD Aminex HPX-87H column and a BIO-RAD Cation-H refill guard column.

**Q.** Which average ethanol yield ([1]; gallic acid high dose (GaA-H) 10 mM, pH about 2, 20° C. overnight) does the source give for `O=C(O)c1cc(O)c(O)c(O)c1` [Gallic acid, 3,4,5-trihydroxybenzoic acid] here?
**A.** Its average ethanol yield is 17.8 g/L.

**Q.** And the average ethanol yield ([1]; gallic acid low dose (GaA-L) 2 mM, pH about 2, 20° C. overnight)?
**A.** Its average ethanol yield is 19.4 g/L.

**Q.** And the “amount of acetic acid present in the fermentation” value ([1]; gallic acid versus control, FIG. 2)?
**A.** The value was “significant drop”.

**Q.** Which results are given for “carbonic anhydrase: carbonic anhydrase from bovine erythrocytes (lyophilized powder, ≧2,500 W-A units/mg protein) Sigma Product # C3934”?
**A.** effect on ethanol production by the yeast ([2]; highest dose of carbonic anhydrase (33.3; 243 kilo units/g TS), pH 5.0, 37° C., after 12 hours of fermentation): boost in ethanol production; also recorded: significant boosting effects; effect on ethanol production by the yeast ([2]; highest dose of carbonic anhydrase (33.3; 243 kilo units/g TS), pH 5.0, 37° C., after 24 hours of fermentation): significant boosting effects

**Q.** How did the average ethanol yield ([1]; amidase high dose (AMD-H) 56 Units/5 g substrate, pre-treatment pH 7, 37° C., 18 hours) turn out when “amidase: amidase from Pseudomonas aeruginosa (Sigma Product # A6691)” was run?
**A.** Its average ethanol yield is 23.6 g/L.

**Q.** What about the average ethanol yield ([1]; amidase low dose (AMD-L) 5.6 Units/5 g substrate, pre-treatment pH 7, 37° C., 18 hours) of the same molecule?
**A.** The average ethanol yield was 21.8 g/L.

**Q.** And the “effect on ethanol production by the yeast” value ([2]; all amidase doses tested (0.3-1.1-5.4-16.1), pH 7.0, 37° C., after 12 hours of fermentation)?
**A.** Its value is “significant boosting effect”.

**Q.** And the “effect on ethanol production by the yeast” value ([2]; all amidase doses tested (0.3-1.1-5.4-16.1), pH 7.0, 37° C., after 24 hours of fermentation)?
**A.** Its value is “boost in ethanol yield; also recorded: significant boosting effect”.
